Bridges are numbered along the chain shown (N, C = ends). The star is where a group is joined. βGlcNAc = CC(=O)N[C@@H]1[C@@H](O)[C@H](O)[C@@H](CO)O[C@H]1*
Tested on: Lactobacillus plantarum ATCC 8014
Format: cell-based
Conditions: for IC50: liquid culture in MRS broth, 96-well plate, triplicate, start OD 0.05, 30 °C, 12-15 h, absorbance 600 nm, error = maximum variance across triplicates
Method: To evaluate the antibacterial activity of synthetic glycocin F (1b), [^27D-His]-GccF (1a) and glyco-mutants 10 and 11, the IC50 values against Lactobacillus plantarum ATCC 8014 were measured using a liquid culture assay. Synthetic GccF (1b) was used as the positive control (Table 1).
The glycopeptides were assayed for activity against Lactobacillus plantarum strain 8014, using a 96-well plate reader. Serial dilutions of the compound to be tested were prepared in MRS broth (Merck) and was added, in triplicate, to a 96-well plate containing an equal volume of L. plantarum 8014 at optical density 0.05. Additional positive controls (cells with no treatment) and negative controls (MRS media with no cells) were included, also in triplicate. Cells were grown in a Multiskan GO plate reader (Thermo Scientific) for 12-15 h, at 30 °C, and absorbance measured at 600 nm every 15 min. The growth of cells in each peptide concentration was modelled against the internal positive control, and the percentage inhibition derived at each time point as the difference between the optical density of the positive control and the optical density of cells within a given peptide concentration. Taking the maximum point from plots of percentage inhibition versus time for each peptide concentration allowed a polynom ial fit to be applied, and the concentration required to reach 50% inhibition derived.
Statistical error was taken as the maximum variance across the triplicates of each concentration in a […]
Figure 44. Th e results from testin g the bacterially-isola ted GccF, synthetic GccF (1b) and analo gues 1a, 10, and 11, plott ed as perc entage in hibit ion of Lact oba cillus plantarum ATCC 8014 gro wth vs concentra tion of the […]
(1 picture or pasted object on this page, not shown here)

[1] = from IC50 values, relative to IC50 1.13 nM

With “H-KPAWCWYTLAMCGAGYDS(βGlcNAc)GTCDYMYSHCFGIKHHSSGSSSYHS(βGlcNAc)-OH (disulfide 5-28, 12-21) [Compound 10]” the “decrease in activity compared to native glycocin F (fold)” value [1] was “approximately 10 fold”.
With “H-KPAWCWYTLAMCGAGYDS(βGlcNAc)GTCDYMYSHCFGIKHHSSGSSSYHC(βGlcNAc)-OH (disulfide 5-28, 12-21) [Native, glycocin F]” the IC50 was 2 ± 0.2 nM.
With “H-KPAWCWYTLAMCGAGYDS(βGlcNAc)GTCDYMYSHCFGIKHHSSGSSSYHC(βGlcNAc)-OH (disulfide 5-28, 12-21) [Compound 1b, glycocin F]” the IC50 was 1.13 ± 0.2 nM.
For “H-KPAWCWYTLAMCGAGYDC(βGlcNAc)GTCDYMYSHCFGIKHHSSGSSSYHC(βGlcNAc)-OH (disulfide 5-28, 12-21) [Compound 11]”, the “increase in activity relative to the native glycopeptide (fold)” value [1] was “approximately 2 fold”.

From article PMC5890784, “Total chemical synthesis of glycocin F and analogues: S-glycosylation confers improved antimicrobial activity” (Chemical Science, 2018)
